The source made the active and inactive calls. No rule for the calls is given here.

In one test the target is glutathione S-transferase (GST-GSH binding). Put plainly: GST–glutathione interaction disruption – biochemical, multiplex beads, flow cytometry, HPSMTB buffer, profiling panel (AID 1324).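 Also: glutathione beads loaded with GST-green fluorescent protein and no fluorescent Bim peptide.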 The note with it: multiplex bead flow cytometry, MCF. Background: In flow cytometry, cells or beads pass a laser one at a time.
Regarding `COc1ccccc1Nc1nc(-c2c(C)nc3ncccn23)cs1`, the EC50 result is “inactive”. For `O=C(Nc1ccc2nc(-c3ccco3)c(-c3ccco3)nc2c1)N1CCCCCC1`, the EC50 result is “inactive”. Consider `CCOC(=O)c1c2c3c(c(Cl)ccc3[nH]c1=O)C(=O)c1ccccc1-2`, for which the EC50 was 5.4 µM. Consider `O=C(Nc1cccc(Cl)c1)Nc1ccnc(-c2cccnc2)n1`, for which the EC50 result was “inactive”. The same measure, in the same setting: the same measure for `Cc1ccnc(Nc2nc(-c3c(C)nc4sccn34)cs2)c1`: “inactive”; for `Cc1cc(C)nc(SCc2cc(=O)c(OC(=O)c3ccc(Cl)c([N+](=O)[O-])c3)co2)n1`: 6.13 µM; for `O=C1c2ccccc2-c2onc3ccc(NCCCn4ccnc4)c1c23`: “inactive”.

The test is the same for the next values; noted with them: multiplex bead flow cytometry, MCF, stronger effect = higher value, concentration not given here.
As to `CN(C)c1ccc(C(=O)/C=C/c2ccc(Br)cc2)cc1`, the percent span inhibition result is “inactive”. `Cc1ccc(/C=C/C(=O)c2ccccc(=O)c2O)c(C)c1`: the percent span inhibition entry is “inactive”. The same measure, in the same setting: the same measure for `COc1cc(/C=N/Nc2nc3c(c(=O)n(C)c(=O)n3C)n2Cc2ccccc2)ccc1OC(=O)c1ccco1`: “inactive”. The same measure, in the same setting: the same measure for `O=C(NC1=C(Nc2ccc(Cl)cc2)C(=O)c2ccccc2C1=O)c1ccccc1`: “inactive”. In the case of `COc1ccc(OC)c2sc(NC(=O)c3ccc(Br)s3)nc12`, the percent span inhibition result was “inactive”.

Regarding `CCOC(=O)CSc1nnc(-c2cccc(Cl)c2)n1CC`, the percent span inhibition result is “inactive”. Still for that read-out and setting: the same measure for `CCc1cccc(CC)c1-n1c(-c2cccnc2)n[nH]c1=S`: “inactive”. Same read-out and setting: the same measure for `NC(=O)c1c(N)sc2c1CCCCC2`: “inactive”; for `CNc1ccccc(C(=O)/C=C/c2ccccc2OC)c1=O`: “inactive”. Still for that read-out and setting: the same measure for `CCOc1cc(S(=O)(=O)N2CCCCC2)ccc1F`: “inactive”.

For `CCOc1cc(/C=N/NC(=O)c2cccs2)cc([N+](=O)[O-])c1O`, the percent span inhibition entry is “inactive”. Consider `Cc1sc(NC(=O)Cn2cnnn2)nc1-c1ccc(Cl)cc1`, for which the percent span inhibition entry is “inactive”. Consider `CCn1c(SCC(=O)Nc2ccc(C)cc2)nnc1-c1ccc(O)cc1`, for which the percent span inhibition result is “inactive”.

As to `Cc1ccc(-c2nc(N3CCOCC3)s[n+]2-c2ccccc2)cc1`, the percent span inhibition result is “inactive”. The same measure, in the same setting: the same measure for `COc1ccc(NC(=O)/C(C#N)=C/c2c(C)nn(-c3ccc(F)cc3)c2Cl)cc1Cl`: “inactive”; for `CN(CC(=O)O/N=C(\N)c1ccc([N+](=O)[O-])cc1)S(=O)(=O)c1ccccc1`: “inactive”.

Regarding `Cc1ccc(NN2C(=O)C=CC2=O)cc1`, the percent span inhibition entry was “inactive”. For the compound `COc1cccc(C(=O)/C=C/Nc2ccc(S(=O)(=O)Nc3onc(C)c3C)cc2)c1`, the percent span inhibition result is “inactive”.

`Nc1ccccc1N=c1ssnc1Cl`: the percent span inhibition entry was “inactive”. On the same count and under the same terms, the same measure for `CN(/N=C/c1cccnc1)C1=NS(=O)(=O)c2ccccc21`: “inactive”. Consider `CCOC(=O)C1=C(Cc2ccc(OC)cc2)C(=O)c2ccccc2C1=O`, for which the percent span inhibition result is “inactive”.

As to `Cc1[nH]n(C(N)=S)c(=O)c1N=Nc1ccc(S(=O)(=O)N2CCCCCC2)cc1`, the percent span inhibition entry is “inactive”. On the same count and under the same terms, the same measure for `COc1cc(CNc2ccc3[nH]c(=O)[nH]c3c2)cc(Br)c1OCC(=O)NC(C)(C)C`: “inactive”; for `COc1cc(NC(=O)c2ccc3c(c2)OCO3)ccc1NC(=O)c1ccco1`: “inactive”. Same read-out and setting: the same measure for `CCCn1c(N2CCN(C)CC2)nc2c1c(=O)[nH]c(=O)n2C`: “inactive”; for `CCC(=O)N(CC)C1=C(O)c2ccccc2C(=O)C1=O`: “inactive”. On to `CNc1ccc(Br)cc(C(=O)/C=C/c2cccc(OC)c2)c1=O`, for which the percent span inhibition entry is “inactive”. Take `O=c1[nH]c(SCc2nc3ccccc3c(=O)n2-c2ccccc2C(F)(F)F)nc2ccccc12`: the percent span inhibition result was “inactive”. On the same count and under the same terms, the same measure for `O=C(OCc1nc2ccccc2[nH]1)C12CC3CC(CC(C3)C1)C2`: “inactive”; for `O=C1c2ccccc2C(=O)N1c1cccc2cccnc12`: “inactive”.

`CN(Cc1cccs1)C(=O)CCc1c[nH]c2ccccc12`: the percent span inhibition result was “inactive”.

Turning to `CCN(C(=O)COC(=O)c1cc(-c2ccc(C)o2)nc2ccccc12)C1CCS(=O)(=O)C1` (stereo not given), the percent span inhibition result is “inactive”.

Regarding `CCN1/C(=C/C(C)=C/c2sc3ccccc3[n+]2CC)Sc2ccccc21`, the percent span inhibition entry was “inactive”. Still for that read-out and setting: the same measure for `COc1ccc(CC(=O)Nc2ccc3nc(C)sc3c2)cc1OC`: “inactive”. Same read-out and setting: the same measure for `Cc1ccc(/C=C/C(=O)Nc2ccc([N+](=O)[O-])c(NC(=O)/C=C/c3ccc(C)o3)c2)o1`: “inactive”. For the compound `CC(C)COC(=O)/C(C#N)=C/c1cn(Cc2ccccc2)c2ccccc12`, the percent span inhibition result was “inactive”. For `COCCN=c1scc(-c2cccs2)n1/N=C/c1ccc(O)c(O)c1O`, the percent span inhibition result was “inactive”. Still for that read-out and setting: the same measure for `CNC(=O)c1sc(-c2ccccn2)nc1C`: “inactive”; for `COc1c(F)c(F)c(C(=O)Nc2ccccc2N2CCN(C(=O)C(C)C)CC2)c(F)c1F`: “inactive”.

Consider `O=C(CSc1nnc(-c2ccco2)n1Cc1ccccc1)c1ccccc1`, for which the percent span inhibition result is “inactive”. On the same count and under the same terms, the same measure for `Cc1ccc(-c2nc3c(c(=O)[nH]c(=O)n3Cc3ccccc3)n2Cc2ccccc2)o1`: “inactive”; for `O=C(CSc1ccc2nnc(-c3ccccn3)n2n1)Nc1nccs1`: “inactive”; for `O=C1c2ccccc2-c2onc3ccc(N4CCCC4)c1c23`: “inactive”. As for `CCN(CC)c1ccc(NC(=O)c2ccccc2)cc1S(=O)(=O)Nc1ccccc1OC`, the percent span inhibition entry was “inactive”.

Turning to `O=C1c2ccccc2C(=O)c2cc(S(=O)(=O)Nc3ccccc3)ccc21`, the percent span inhibition result was “inactive”.

With `CCOC(=O)C1CCCN(c2ncnc3c2cnn3-c2cccc(C)c2)C1` (stereo not given), the percent span inhibition result is “inactive”.

Regarding `CC1=CC(=O)c2ccccc2C1=O`, the percent span inhibition entry was “inactive”.

For the compound `Cc1ccc(-c2cc(-c3ccc(Cl)cc3)c(C#N)c(N)n2)o1`, the percent span inhibition result is “inactive”. With `CCN(CC)c1ccc(Nc2nc(N3CCOCC3)c3ccccc3n2)cc1`, the percent span inhibition entry is “inactive”.

For `CCN(CC)c1ccc(NC(=O)c2ccccc2Br)cc1S(=O)(=O)Nc1ccccc1OC`, the percent span inhibition result was “inactive”. The same measure, in the same setting: the same measure for `Cc1cccn2c(=O)c3cc(C(N)=S)c(=N)n(CCCN4CCOCC4)c3nc12`: “inactive”; for `COc1ccc(N2CC(C(=O)Nc3nnc(SCC(=O)c4ccccc4)s3)CC2=O)cc1` (stereo not given): “inactive”. On the same count and under the same terms, the same measure for `O=[N+]([O-])c1ccc(N2CCN(c3ccc(O)cc3)CC2)c(Cl)c1`: “inactive”; for `Cc1ccc(NC(=O)CSc2nc3ccccc3c(=O)n2CCCN2CCCCC2)cc1Cl`: “inactive”; for `CCOc1ccc(C(=O)Nc2nnc(NC(=S)Nc3ccccc3)s2)cc1`: “inactive”.

Regarding `CCOC(=O)CCCNC(=O)c1cncc(O)c1`, the percent span inhibition entry was “inactive”.

Regarding `Clc1ccc(N=c2ssnc2Cl)nc1`, the percent span inhibition entry is “inactive”.

Consider `O=C(/C=C/c1c(F)cccc1Cl)Nc1ccncc1`, for which the percent span inhibition result was “inactive”. The same measure, in the same setting: the same measure for `O=S1(=O)N=C(N(CCO)/N=C/c2ccccc2)c2ccccc21`: “inactive”; for `CCOC(=O)c1nn(-c2ccccc2)c(C#N)c1N`: “inactive”. Turning to `Cc1cc(-c2csc(N)n2)c(C)n1C`, the percent span inhibition entry was “inactive”.

`CN(Cc1ccccc1)c1nc2c(c(=O)[nH]c(=O)n2C)n1C`: the percent span inhibition result was “inactive”. `C/C(=N\NC(=O)Cn1nc(C)c([N+](=O)[O-])c1C)c1ccc(O)cc1`: the percent span inhibition result was “inactive”. Same read-out and setting: the same measure for `Cc1ccc(S(=O)(=O)N(C)CC(=O)N2CCc3ccccc32)cc1`: “inactive”; for `c1ccc(-c2nc(N3CCOCC3)s[n+]2-c2ccccc2)cc1`: “inactive”. For the compound `O=C1C=C(Nc2ccccc2)C(=O)c2ccccc21`, the percent span inhibition entry was “inactive”. Still for that read-out and setting: the same measure for `CNC(=S)N/N=C/C1=CCC2CC1C2(C)C` (stereo not given): “inactive”.

For the compound `COc1ccc2nc(C)cc(SCC(=O)N/N=C/c3ccc(O)cc3O)c2c1`, the percent span inhibition entry is “inactive”. Still for that read-out and setting: the same measure for `Cc1[nH]c2ccccc2c1C(=O)COC(=O)c1c(-c2c(F)cccc2Cl)noc1C`: “inactive”; for `COc1ccc(NC(=O)c2ccco2)cc1NC(=O)c1ccco1`: “inactive”.

Turning to `CN(C(=O)NC1CCCCC1)c1ccccc1`, the percent span inhibition result is “inactive”. Still for that read-out and setting: the same measure for `Clc1ccc2c(N/N=C/c3cccc(Br)c3)ccnc2c1`: “inactive”; for `Fc1ccccc1-n1cc(-c2ccccc2)[nH]c1=S`: “inactive”.

`CNC(=O)/C(C#N)=C/c1c(N(Cc2ccccc2)Cc2ccccc2)nc2c(C)cccn2c1=O`: the percent span inhibition result was “inactive”. `CCC(CC)C(=O)Nc1cccc(SC)c1`: the percent span inhibition result was “inactive”. In the case of `CCOc1cccc(CNc2ccc(O)cc2)c1OCc1ccc(Cl)cc1`, the percent span inhibition entry was “inactive”. Same read-out and setting: the same measure for `OCCC1CN(Cc2nc3c(s2)CCCC3)CCN1Cc1ccsc1` (stereo not given): “inactive”. On to `COCCNc1nc(=S)[nH]c2cc(OC)c(OC)cc12`, for which the percent span inhibition result was “inactive”. Regarding `O=C(Oc1ccc(-c2cnc3ccccc3n2)cc1)c1cccc([N+](=O)[O-])c1`, the percent span inhibition entry was “inactive”. On to `O=C(COCC(=O)NCc1ccccc1)NCc1ccccc1`, for which the percent span inhibition result was “inactive”. Still for that read-out and setting: the same measure for `Cc1ccc(/C=C2/NC(=O)N(Cc3ccccc3)C2=O)o1`: “inactive”; for `CC(C)Cc1cc(-c2ccco2)c(C#N)c(N)n1`: “inactive”. On the same count and under the same terms, the same measure for `CC(C)n1nnnc1SCC(=O)N1CCN(C(=O)c2ccco2)CC1`: “inactive”.

By EC50 is commonly meant the concentration at which the effect is half-maximal.

These data come from PubChem BioAssay AID1324 (NMMLSC, 2008).
